The subject of this data set is rodent carcinogenicity bioassays, tumor incidence. Put plainly: CCRIS carcinogenicity studies. Put shortly:
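NCI-built, expert-reviewed records of carcinogenicity and related test outcomes (mutagenicity, tumor promotion/inhibition) compiled from published and report sources, historical span 1985-2011, not updated.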

Molecules are shown by their SMILES. Active and inactive are the calls of the source. How the calls were made is not given here.

In the case of `C[C@]12C=CC(=O)C=C1CC[C@@H]1[C@@H]2C(=O)C[C@@]2(C)[C@H]1CC[C@]2(O)C(=O)CO`, the carcinogen call (Species: MOUSE, Strain/Sex: ICR/FEMALE, Route: ORAL, Dose: 0, 0.25, 0.5, 1, 5 MG/KG/D FOR 18 MO (STUDY DURATION: 18 MO), Dose: 0, 0.25, 0.5, 1, 5 MG/KG/D FOR 18 MO (STUDY DURATION: 18 MO)) is “inactive; negative” and the carcinogen call (Species: MOUSE, Strain/Sex: ICR/MALE, Route: ORAL, Dose: 0, 0.25, 0.5, 1, 5 MG/KG/D FOR 18 MO (STUDY DURATION: 18 MO), Dose: 0, 0.25, 0.5, 1, 5 MG/KG/D FOR 18 MO (STUDY DURATION: 18 MO)) was “inactive; negative”.

For `S=C([S-])NCCNC(=S)[S-].[Zn+2]`, the carcinogen call reads like this: (Species: MOUSE, Strain/Sex: CD/FEMALE, Route: ORAL, Dose: 0, 100, 300 PPM IN DIET FOR 89 WK (STUDY DURATION: 94 WK), Dose: 0, 100, 300 PPM IN DIET FOR 89 WK (STUDY DURATION: 94 WK)) “inactive; negative”; (Species: MOUSE, Strain/Sex: CD/FEMALE, Route: ORAL, Dose: 0, 1000 PPM IN DIET FOR 88 WK (STUDY DURATION: 88 WK)) “inactive; negative”; (Species: MOUSE, Strain/Sex: CD/MALE, Route: ORAL, Dose: 0, 100, 300, 1000 PPM IN DIET FOR 95 WK (STUDY DURATION: 96 WK), Dose: 0, 100, 300, 1000 PPM IN DIET FOR 95 WK (STUDY DURATION: 96 WK)) “inactive; negative”; (Species: RAT, Strain/Sex: CD/FEMALE, Route: ORAL, Dose: 0, 5, 20, 80, 320 PPM IN DIET FOR 112 WK (STUDY DURATION: 112 WK), Dose: 0, 5, 20, 80, 320 PPM IN DIET FOR 112 WK (STUDY DURATION: 112 WK)) “inactive; negative”; (Species: RAT, Strain/Sex: CD/MALE, Route: ORAL, Dose: 0, 5, 20, 80, 320 PPM IN DIET FOR 119 WK (STUDY DURATION: 119 WK), Dose: 0, 5, 20, 80, 320 PPM IN DIET FOR 119 WK (STUDY DURATION: 119 WK)) “inactive; negative”.

In the case of `COc1ccc([N+](=O)[O-])cc1N`, the carcinogen call was “inactive; negative” (Species: MOUSE, Strain/Sex: B6C3F1/FEMALE, Route: ORAL, Dose: 0, 0.8% IN DIET FOR 78 WK (STUDY DURATION: 97 WK)); “active; positive” (Species: MOUSE, Strain/Sex: B6C3F1/FEMALE, Route: ORAL, Dose: 0, 1.6% IN DIET FOR 15 WK FOLLOWING BY 0.4% FOR LAST 63 WK (STUDY DURATION: 97 WK), Tumor Site: Type of Lesion: LIVER: HEPATOCELLULAR CARCINOMA); “equivocal” (Species: MOUSE, Strain/Sex: B6C3F1/MALE, Route: ORAL, Dose: 0, 0.8% IN DIET FOR 78 WK (STUDY DURATION: 97 WK), Tumor Site: Type of Lesion: LIVER: HEPATOCELLULAR CARCINOMA); “inactive; negative” (Species: MOUSE, Strain/Sex: B6C3F1/MALE, Route: ORAL, Dose: 0, 1.6% IN DIET FOR FIRST 15 WK FOLLOWING BY 0.4% FOR 63 WK (STUDY DURATION: 97 WK)); “active; positive” (Species: RAT, Strain/Sex: F344/FEMALE, Route: ORAL, Dose: 0, 0.4, 0.8% IN DIET FOR 78 WK (STUDY DURATION: 106-108 WK), Dose: 0, 0.4, 0.8% IN DIET FOR 78 WK (STUDY DURATION: 106-108 WK), Tumor Site: Type of Lesion: CLITORAL GLAND: CARCINOMA (NOS), CARCINOMA (NOS) OR SQUAMOUS CELL CARCINOMA, ADENOMA (NOS) OR PAPILLARY ADENOMA OR CARCI); “active; positive” (Species: RAT, Strain/Sex: F344/MALE, Route: ORAL, Dose: 0, 0.4, 0.8% IN DIET FOR 78 WK (STUDY DURATION: 102-109 WK), Dose: 0, 0.4, 0.8% IN DIET FOR 78 WK (STUDY DURATION: 102-109 WK), Tumor Site: Type of Lesion: INTEGUMENTARY SYSTEM (SKIN): BASAL CELL CARCINOMA, TRICHOEPITHELIOMA;INTEGUMENTARY SYSTEM (EXCLUDING SKIN OF EAR): SQUAM).

As to `Clc1ccc(C(c2ccccc2Cl)C(Cl)(Cl)Cl)cc1` (configuration not stated) (tested in a mixture with another compound), the carcinogen call (Species: MOUSE, Strain/Sex: BALB/MALE,FEMALE, Route: DIET, Dose: 0, 2, 20, 250 PPM, Dose: 0, 2, 20, 250 PPM, Tumor Site: Type of Lesion: LIVER: HEPATOCELLULAR TUMOR) is “active; positive”; the carcinogen call (Species: MOUSE, Strain/Sex: CF-1/MALE,FEMALE, Route: DIET, Dose: 0, 250 PPM FOR 30 WK, Tumor Site: Type of Lesion: LIVER: HEPATOMA) was “active; positive”; the carcinogen call (Species: MOUSE, Strain/Sex: CF-1, Route: DIET, Dose: 0, 2, 10, 50, 250 PPM, Dose: 0, 2, 10, 50, 250 PPM, Tumor Site: Type of Lesion: LIVER: HEPATOCELLULAR TUMOR) is “active; positive”.

As to `C1CCC2CCCCC2C1` (configuration not stated), the carcinogen call (Species: MOUSE, Strain/Sex: B6C3F1/FEMALE (50/GROUP), Route: INHALATION, Dose: 0, 25, 100, 400 PPM 6 HR/D, 5 D/WK FOR 105 WKS (STUDY DURATION: 105 WKS), Dose: 0, 25, 100, 400 PPM 6 HR/D, 5 D/WK FOR 105 WKS (STUDY DURATION: 105 WKS), Tumor Site: Type of Lesion: LIVER: HEPATOCELLULAR ADENOMA OR CARCINOMA (22%; 54%; 28%; 42%)) is recorded as “equivocal; ntp says marginal increase in uterine tumors but p values did not rea”; the carcinogen call (Species: MOUSE, Strain/Sex: B6C3F1/MALE (50/GROUP), Route: INHALATION, Dose: 0, 25, 100, 400 PPM 6 HR/D, 5 D/WK FOR 105 WKS (STUDY DURATION: 105 WKS), Dose: 0, 25, 100, 400 PPM 6 HR/D, 5 D/WK FOR 105 WKS (STUDY DURATION: 105 WKS)) was “inactive; negative”; the carcinogen call (Species: RAT, Strain/Sex: F344/FEMALE, Route: INHALATION, Dose: 0, 25, 100, 400 PPM IN AIR, 6 H PLUS 12 MIN/D, 5 D/WK FOR 2 YR (STUDY DURATION: 2 YR), Dose: 0, 25, 100, 400 PPM IN AIR, 6 H PLUS 12 MIN/D, 5 D/WK FOR 2 YR (STUDY DURATION: 2 YR)) is “inactive; negative”; the carcinogen call (Species: RAT, Strain/Sex: F344/MALE, Route: INHALATION, Dose: 0, 25, 50, 100, 400 PPM IN AIR , 6 H PLUS 12 MIN/D, 5 D/WK FOR 2 YR (STUDY DURATION: 2 YR), Dose: 0, 25, 50, 100, 400 PPM IN AIR , 6 H PLUS 12 MIN/D, 5 D/WK FOR 2 YR (STUDY DURATION: 2 YR), Tumor Site: Type of Lesion: KIDNEY: RENAL TUBULE ADENOMA, RENAL TUBULE ADENOMA OR CARCINOMA) was “active; positive”; the carcinogen call (Species: RAT, Strain/Sex: F344/N/FEMALE (50/GROUP), Route: INHALATION, Dose: 0, 25, 100, 400 PPM 6 HR/D, 5 D/WK FOR 105 WKS (STUDY DURATION: 105 WKS), Dose: 0, 25, 100, 400 PPM 6 HR/D, 5 D/WK FOR 105 WKS (STUDY DURATION: 105 WKS)) was “inactive; negative”; the carcinogen call (Species: RAT, Strain/Sex: F344/N/MALE (20/GROUP), Route: INHALATION, Dose: 400 PPM 6 HR/D, 5 D/WK FOR 105 WKS (STUDY DURATION: 105 WKS), Tumor Site: Type of Lesion: KIDNEY: RENAL TUBULE ADENOMA OR CARCINOMA (30%), ADRENAL: PHEOCHROMOCYTOMA (40%)) is “active; positive”. The carcinogen call (Species: RAT, Strain/Sex: F344/N/MALE (50/GROUP), Route: INHALATION, Dose: 0, 25, 50, 100 PPM 6 HR/D, 5 D/WK FOR 105 WKS (STUDY DURATION: 105 WKS), Dose: 0, 25, 50, 100 PPM 6 HR/D, 5 D/WK FOR 105 WKS (STUDY DURATION: 105 WKS), Tumor Site: Type of Lesion: KIDNEY: RENAL TUBULE ADENOMA OR CARCINOMA (2%; 6%; 14%; 24%), ADRENAL: BENIGN OR MALIGNANT PHEOCHROMOCYTOMA (16%, 18%, 2, Tumor Site: Type of Lesion: KIDNEY: RENAL TUBULE ADENOMA OR CARCINOMA (2%; 6%; 14%; 24%), ADRENAL: BENIGN OR MALIGNANT PHEOCHROMOCYTOMA (16%, 18%, 2) was “active; positive; alpha-2u-globulin, incidences of renal tubule regeneration and granula”.

On to `COP(=S)(OC)Oc1ccc([N+](=O)[O-])cc1`, for which the carcinogen call is, setting by setting: (Species: MOUSE, Strain/Sex: B6C3F1/FEMALE, Route: ORAL, Dose: 0, 62.5, 125 PPM IN DIET, Dose: 0, 62.5, 125 PPM IN DIET) “inactive; negative”; (Species: MOUSE, Strain/Sex: B6C3F1/MALE, Route: ORAL, Dose: 0, 35, 77 PPM IN DIET, TWA, Dose: 0, 35, 77 PPM IN DIET, TWA) “inactive; negative”; (Species: RAT, Strain/Sex: F344/FEMALE, Route: ORAL, Dose: 0, 20, 40 PPM IN DIET, Dose: 0, 20, 40 PPM IN DIET) “inactive; negative”; (Species: RAT, Strain/Sex: F344/MALE, Route: ORAL, Dose: 0, 20, 40 PPM IN DIET, Dose: 0, 20, 40 PPM IN DIET) “inactive; negative”.
